# Several values for one entry are separate records, joined by “and”; a condition that tells them apart may be missing. Equal values may be shown once. Read-outs that look alike come from different tables or passages of the source.
# Experiments:
# [1] = test system: MDA-MB-435; assay: NCI cytotoxicity screen; type: cell-based, human; settings: for GI %: 10.0 μM one dose
# [2] = test system: Renal cancer subpanel tumor cell lines; assay: NCI cytotoxicity screen, subpanel; type: cell-based, human
# [3] = target: EGFR (Homo sapiens, UniProt P00533); assay: biochemical; settings: IC50 EGFR inhibition
# [4] = test system: Ovarian cancer subpanel tumor cell lines; assay: NCI cytotoxicity screen, subpanel; type: cell-based, human
# [5] = test system: OVCAR-3; assay: NCI cytotoxicity screen; type: cell-based, human; settings: for GI %: 10.0 μM one dose, IGROV-3
# [6] = test system: BT-549; assay: NCI cytotoxicity screen; type: cell-based, human; settings: for GI %: 10.0 μM one dose
# [7] = target: HER2 (Homo sapiens, UniProt P04626); assay: HER2 tyrosine kinase assay; type: biochemical; settings: IC50 HER2 inhibition
# [8] = test system: K-562; settings: 10.0 μM one dose
# [9] = test system: 59 cancer cell lines; assay: NCI cytotoxicity screen, full panel; type: cell-based, human; settings: for MG% (mean growth percent): 10.0 μM one dose, 59 cell lines
# [10] = test system: CNS cancer subpanel tumor cell lines; assay: NCI cytotoxicity screen, subpanel; type: cell-based, human
# [11] = target: T1, COX-2 (Ovis aries, UniProt P79208); assay: Colorimetric COX; type: biochemical, ovine
# T1 sequence (P79208 17-603): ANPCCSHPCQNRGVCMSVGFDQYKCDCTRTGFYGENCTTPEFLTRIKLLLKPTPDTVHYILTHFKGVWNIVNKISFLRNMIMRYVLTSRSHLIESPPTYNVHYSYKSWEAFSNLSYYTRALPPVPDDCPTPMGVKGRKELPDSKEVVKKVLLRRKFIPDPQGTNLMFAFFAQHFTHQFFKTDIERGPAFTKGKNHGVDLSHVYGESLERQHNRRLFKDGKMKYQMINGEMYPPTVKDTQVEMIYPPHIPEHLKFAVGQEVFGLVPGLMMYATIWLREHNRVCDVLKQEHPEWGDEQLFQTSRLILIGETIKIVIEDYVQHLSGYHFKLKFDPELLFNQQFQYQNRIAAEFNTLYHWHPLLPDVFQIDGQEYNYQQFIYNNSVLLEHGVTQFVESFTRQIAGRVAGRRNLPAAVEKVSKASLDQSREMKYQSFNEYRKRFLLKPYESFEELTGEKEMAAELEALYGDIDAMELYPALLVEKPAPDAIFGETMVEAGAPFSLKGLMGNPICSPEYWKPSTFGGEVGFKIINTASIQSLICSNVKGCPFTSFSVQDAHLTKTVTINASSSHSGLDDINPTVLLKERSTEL
# [12] = test system: HOP-62; assay: NCI cytotoxicity screen; type: cell-based, human; settings: for GI %: 10.0 μM one dose
# [13] = test system: T-47D cells; assay: Annexin V-FITC/PI apoptosis assay; type: cell-based
# [14] = test system: PC-3; assay: NCI cytotoxicity screen; type: cell-based, human; settings: for GI %: 10.0 μM one dose
# [15] = test system: NCI-H226; assay: NCI cytotoxicity screen; type: cell-based, human; settings: for GI %: 10.0 μM one dose
# [16] = test system: COLO 205; assay: NCI cytotoxicity screen; type: cell-based, human; settings: for GI %: 10.0 μM one dose, COLO-205
# [17] = test system: SK-MEL-2; assay: NCI cytotoxicity screen; type: cell-based, human; settings: for GI %: 10.0 μM one dose
# [18] = test system: UACC-257; assay: NCI cytotoxicity screen; type: cell-based, human; settings: for GI %: 10.0 μM one dose
# [19] = test system: TK-10; assay: NCI cytotoxicity screen; type: cell-based, human; settings: for GI %: 10.0 μM one dose
# [20] = test system: SK-MEL-28; assay: NCI cytotoxicity screen; type: cell-based, human; settings: for GI %: 10.0 μM one dose
# [21] = test system: CCRF-CEM; assay: NCI cytotoxicity screen; type: cell-based, human; settings: for GI %: 10.0 μM one dose
# [22] = test system: OVCAR-8; assay: NCI cytotoxicity screen; type: cell-based, human; settings: for GI %: 10.0 μM one dose
# [23] = target: CDK9 (Homo sapiens, UniProt P50750); assay: biochemical; settings: IC50 CDK9 inhibition
# [24] = test system: IGROV1; assay: NCI cytotoxicity screen; type: cell-based, human; settings: for GI %: 10.0 μM one dose, IGROV1
# [25] = test system: EKVX; assay: NCI cytotoxicity screen; type: cell-based, human; settings: for GI %: 10.0 μM one dose
# [26] = test system: HL-60(TB); settings: 10.0 μM one dose
# [27] = test system: MDA-MB-468; assay: NCI cytotoxicity screen; type: cell-based, human; settings: for GI %: 10.0 μM one dose
# [28] = test system: NCI/ADR-RES; assay: NCI cytotoxicity screen; type: cell-based, human
# [29] = test system: HCT-15; assay: NCI cytotoxicity screen; type: cell-based, human; settings: for GI %: 10.0 μM one dose
# [30] = test system: Colon cancer subpanel tumor cell lines; assay: NCI cytotoxicity screen, subpanel; type: cell-based, human
# [31] = test system: HCC-2998; assay: NCI cytotoxicity screen; type: cell-based, human; settings: for GI %: 10.0 μM one dose, HCC-2998
# [32] = test system: MOLT4 cells; assay: Annexin V-FITC/PI apoptosis assay; type: cell-based
# [33] = test system: MOLT4 cells; assay: Cell cycle analysis; type: cell-based; settings: compound at IC50 concentration
# HER2, sequence (P04626 23-1255): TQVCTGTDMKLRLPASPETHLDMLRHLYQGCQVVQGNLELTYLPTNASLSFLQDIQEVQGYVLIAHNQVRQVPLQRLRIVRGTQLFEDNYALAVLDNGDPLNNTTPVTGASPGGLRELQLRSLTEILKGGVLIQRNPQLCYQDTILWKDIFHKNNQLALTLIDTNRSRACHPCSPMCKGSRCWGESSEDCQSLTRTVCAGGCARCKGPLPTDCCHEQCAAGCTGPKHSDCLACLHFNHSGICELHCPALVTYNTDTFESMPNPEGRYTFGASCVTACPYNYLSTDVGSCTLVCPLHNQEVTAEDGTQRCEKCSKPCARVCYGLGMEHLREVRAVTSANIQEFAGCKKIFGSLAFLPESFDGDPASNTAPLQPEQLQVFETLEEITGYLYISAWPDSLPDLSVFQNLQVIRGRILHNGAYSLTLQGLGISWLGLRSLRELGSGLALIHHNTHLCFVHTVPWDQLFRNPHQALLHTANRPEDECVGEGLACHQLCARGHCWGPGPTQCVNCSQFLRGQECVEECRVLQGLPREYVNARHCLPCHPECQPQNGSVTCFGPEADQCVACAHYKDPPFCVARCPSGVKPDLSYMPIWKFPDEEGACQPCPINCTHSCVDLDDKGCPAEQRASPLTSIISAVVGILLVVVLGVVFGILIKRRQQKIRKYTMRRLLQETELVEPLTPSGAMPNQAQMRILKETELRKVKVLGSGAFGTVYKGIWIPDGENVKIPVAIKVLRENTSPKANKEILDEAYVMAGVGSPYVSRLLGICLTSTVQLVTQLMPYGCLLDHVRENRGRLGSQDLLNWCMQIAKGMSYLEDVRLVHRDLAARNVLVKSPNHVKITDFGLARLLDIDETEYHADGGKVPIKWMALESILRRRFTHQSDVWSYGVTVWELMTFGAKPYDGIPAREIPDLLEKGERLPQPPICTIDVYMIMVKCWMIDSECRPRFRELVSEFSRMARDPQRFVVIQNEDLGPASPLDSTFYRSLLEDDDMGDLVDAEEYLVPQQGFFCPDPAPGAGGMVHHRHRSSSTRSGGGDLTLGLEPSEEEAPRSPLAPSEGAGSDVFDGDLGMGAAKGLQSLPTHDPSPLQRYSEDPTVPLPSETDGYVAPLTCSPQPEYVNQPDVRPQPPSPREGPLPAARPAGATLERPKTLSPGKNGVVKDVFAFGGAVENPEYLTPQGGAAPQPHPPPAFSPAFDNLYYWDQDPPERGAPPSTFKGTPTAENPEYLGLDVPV
# EGFR, sequence (P00533 25-1210): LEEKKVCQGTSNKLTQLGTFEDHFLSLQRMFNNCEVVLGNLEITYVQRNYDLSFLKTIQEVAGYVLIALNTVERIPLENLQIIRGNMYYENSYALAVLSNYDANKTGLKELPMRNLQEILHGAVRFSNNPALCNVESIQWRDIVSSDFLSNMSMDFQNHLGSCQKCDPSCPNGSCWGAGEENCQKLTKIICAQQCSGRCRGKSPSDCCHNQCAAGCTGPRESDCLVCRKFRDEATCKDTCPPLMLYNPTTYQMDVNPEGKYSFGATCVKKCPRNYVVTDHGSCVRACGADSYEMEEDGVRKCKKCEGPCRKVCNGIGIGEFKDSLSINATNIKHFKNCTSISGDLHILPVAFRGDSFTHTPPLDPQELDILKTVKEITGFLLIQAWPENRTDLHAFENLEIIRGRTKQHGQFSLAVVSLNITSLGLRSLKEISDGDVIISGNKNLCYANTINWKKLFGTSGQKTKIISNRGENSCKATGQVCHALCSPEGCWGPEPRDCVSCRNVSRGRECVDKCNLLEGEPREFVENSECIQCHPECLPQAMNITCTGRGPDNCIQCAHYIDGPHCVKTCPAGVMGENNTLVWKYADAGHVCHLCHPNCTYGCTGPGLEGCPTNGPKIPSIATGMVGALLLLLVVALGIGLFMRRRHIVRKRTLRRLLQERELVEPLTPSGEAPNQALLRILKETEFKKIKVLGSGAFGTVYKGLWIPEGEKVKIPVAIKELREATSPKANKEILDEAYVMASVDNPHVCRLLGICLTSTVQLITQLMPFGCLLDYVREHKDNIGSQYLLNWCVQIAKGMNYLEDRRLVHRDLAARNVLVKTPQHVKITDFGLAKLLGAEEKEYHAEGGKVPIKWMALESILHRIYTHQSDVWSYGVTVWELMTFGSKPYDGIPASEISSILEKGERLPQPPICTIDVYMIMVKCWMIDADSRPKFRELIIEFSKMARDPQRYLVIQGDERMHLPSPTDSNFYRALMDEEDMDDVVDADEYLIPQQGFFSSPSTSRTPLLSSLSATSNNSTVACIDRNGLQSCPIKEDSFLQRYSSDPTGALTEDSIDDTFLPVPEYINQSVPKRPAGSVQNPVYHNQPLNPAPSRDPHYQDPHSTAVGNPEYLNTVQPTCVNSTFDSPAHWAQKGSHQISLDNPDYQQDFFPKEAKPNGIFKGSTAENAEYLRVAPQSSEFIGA
# CDK9, sequence (P50750 whole entry): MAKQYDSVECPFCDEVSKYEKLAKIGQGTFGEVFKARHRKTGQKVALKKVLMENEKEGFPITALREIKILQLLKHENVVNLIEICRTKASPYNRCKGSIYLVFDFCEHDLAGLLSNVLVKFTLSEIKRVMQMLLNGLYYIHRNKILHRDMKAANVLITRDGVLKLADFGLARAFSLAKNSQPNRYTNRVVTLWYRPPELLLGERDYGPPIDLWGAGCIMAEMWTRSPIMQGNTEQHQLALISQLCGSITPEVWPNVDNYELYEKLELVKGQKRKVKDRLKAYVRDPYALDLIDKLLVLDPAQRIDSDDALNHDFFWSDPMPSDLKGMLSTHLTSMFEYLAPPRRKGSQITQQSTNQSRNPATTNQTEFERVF
# CDK9, sequence (O60563 whole entry partner): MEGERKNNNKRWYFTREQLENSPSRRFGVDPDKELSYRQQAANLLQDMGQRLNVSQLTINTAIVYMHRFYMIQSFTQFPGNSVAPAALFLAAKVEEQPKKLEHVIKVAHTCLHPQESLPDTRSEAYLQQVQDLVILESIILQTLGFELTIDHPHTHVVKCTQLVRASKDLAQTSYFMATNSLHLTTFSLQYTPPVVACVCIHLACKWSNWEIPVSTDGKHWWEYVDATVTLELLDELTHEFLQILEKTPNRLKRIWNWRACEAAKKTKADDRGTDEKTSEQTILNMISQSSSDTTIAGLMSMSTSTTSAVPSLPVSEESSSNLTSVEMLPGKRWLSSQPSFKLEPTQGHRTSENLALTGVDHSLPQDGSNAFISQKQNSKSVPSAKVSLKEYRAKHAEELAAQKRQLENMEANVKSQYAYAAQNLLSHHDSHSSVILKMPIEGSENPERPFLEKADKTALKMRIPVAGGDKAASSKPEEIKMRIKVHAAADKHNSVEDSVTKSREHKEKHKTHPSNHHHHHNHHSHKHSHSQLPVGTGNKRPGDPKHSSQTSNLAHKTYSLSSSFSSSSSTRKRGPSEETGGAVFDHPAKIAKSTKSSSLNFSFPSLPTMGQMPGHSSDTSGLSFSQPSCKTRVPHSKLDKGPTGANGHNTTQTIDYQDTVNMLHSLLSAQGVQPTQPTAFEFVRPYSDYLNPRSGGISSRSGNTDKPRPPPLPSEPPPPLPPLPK
smiles,measurement,setting,value
"CCN(CC)c1ccc(C=NNC(=O)CSc2nc3ccccc3c(=O)n2Cc2ccc(S(N)(=O)=O)cc2)c(O)c1 [Compound 5, 4-((2-((2-(2-(4-(Diethylamino)-2-hydroxybenzylidene)hydrazineyl)-2-oxoethyl)thio)-4-oxoquinazolin-3(4H)-yl)methyl)benzenesulfonamide]",GI %,[1],87%
same,GI50,[1]; Homo sapiens,2070 nM
same,CC50,"[2]; Homo sapiens, read-out: LC50",> 100000 nM
same,GI50,"[2]; Homo sapiens, subpanel value, Renal cancer",1900 nM
same,GI50,"[2]; subpanel value, Renal cancer",1920 nM
same,TGI,"[2]; subpanel value, Renal cancer",91540 nM
same,IC50,[3],84.4 nM
same,CC50,"[4]; Homo sapiens, read-out: LC50",> 100000 nM
same,GI50,"[4]; Homo sapiens, subpanel value, Ovarian cancer",15100 nM
same,GI50,"[4]; subpanel value, Ovarian cancer",15100 nM
same,TGI,"[4]; subpanel value, Ovarian cancer",c (Compounds showed values > 100 μM)
same,GI %,[5],85%
same,GI50,"[5]; Homo sapiens, OVCAR-3",287 nM
same,GI %,[6],67%
same,GI50,[6]; Homo sapiens,2680 nM
same,IC50,[7],53.9 nM
same,GI %,[8],94%
same,MG% (mean growth percent),[9],23.5% and 23.46%
same,GI50,"[9]; Homo sapiens, read-out: GI50 MG_MID, full panel mean-graph midpoint",1000 nM
same,CC50,"[9]; Homo sapiens, read-out: LC50 MG_MID, full panel mean-graph midpoint",> 100000 nM
same,TGI MG_MID,[9]; full panel mean-graph midpoint,89200 nM and 89240 nM
same,GI50,"[9]; read-out: GI50 MG_MID, full panel mean-graph midpoint",1100 nM
same,CC50,"[9]; read-out: LC50 MG_MID, full panel mean-graph midpoint",> 100000 nM
same,CC50,"[10]; Homo sapiens, read-out: LC50",> 100000 nM
same,GI50,"[10]; Homo sapiens, subpanel value, CNS cancer",1500 nM
same,GI50,"[10]; subpanel value, CNS cancer",1490 nM
same,TGI,"[10]; subpanel value, CNS cancer",c (Compounds showed values > 100 μM)
same,IC50,[11],3320 ± 60 nM
same,GI %,[12],79%
same,GI50,[12]; Homo sapiens,961 nM
same,Apoptosis Early,[13],9.3% and 9.28%
same,Apoptosis Late,[13],14.8% and 14.75%
same,Apoptosis Total,[13],31.07%
same,Necrosis,[13],7.04%
same,GI %,[14],51%
same,GI50,[14]; Homo sapiens,829 nM
same,GI %,[15],69%
same,GI50,[15]; Homo sapiens,894 nM
same,GI %,[16],102%
same,GI50,"[16]; Homo sapiens, COLO 205",1510 nM
same,GI %,[17],90%
same,GI50,[17]; Homo sapiens,2410 nM
same,GI %,[18],87%
same,GI50,[18]; Homo sapiens,3030 nM
same,GI %,[19],85%
same,GI50,[19]; Homo sapiens,1660 nM
same,GI %,[20],67%
same,GI50,[20]; Homo sapiens,1620 nM
same,GI %,[21],90%
same,GI50,[21]; Homo sapiens,196 nM
same,GI %,[22],80%
same,GI50,[22]; Homo sapiens,932 nM
same,IC50,[23],147 ± 3.6 nM
same,GI %,[24],74%
same,GI50,"[24]; Homo sapiens, IGROV-1",785 nM
same,GI %,[25],65%
same,GI50,[25]; Homo sapiens,650 nM
same,GI %,[26],120%
same,GI %,[27],110%
same,GI50,[27]; Homo sapiens,524 nM
same,GI %,[28]; 10.0 μM one dose,13%
same,GI50,"[28]; Homo sapiens, five-dose",> 100000 nM
same,GI %,[29],53%
same,GI50,[29]; Homo sapiens,3620 nM
same,CC50,"[30]; Homo sapiens, read-out: LC50",> 100000 nM
same,GI50,"[30]; Homo sapiens, subpanel value, Colon cancer",1600 nM
same,GI50,"[30]; subpanel value, Colon cancer",1560 nM
same,TGI,"[30]; subpanel value, Colon cancer",c (Compounds showed values > 100 μM)
same,GI %,[31],80%
same,GI50,"[31]; Homo sapiens, HCC 2998",882 nM
"NS(=O)(=O)c1ccc(Cn2c(SCC(=O)NN=Cc3ccccc3O)nc3ccccc3c2=O)cc1 [Compound 6, 4-((2-((2-(2-(2-Hydroxybenzylidene)hydrazineyl)-2-oxoethyl)thio)-4-oxoquinazolin-3(4H)-yl)methyl)benzenesulfonamide]",GI %,[1],29%
same,IC50,[3],51.5 nM
same,GI %,[5],87%
same,GI %,[6],44%
same,IC50,[7],44.1 nM
same,GI %,[8],64%
same,MG% (mean growth percent),[9],55.2% and 55.22%
same,IC50,[11],4470 ± 90 nM
same,GI %,[12],65%
same,GI %,[14],33%
same,GI %,[15],43%
same,GI %,[16],71%
same,GI %,[17],64%
same,GI %,[18],30%
same,GI %,[19],47%
same,GI %,[20],43%
same,Apoptosis Early,[32],19.2% and 19.22%
same,Apoptosis Total,[32],35.06%
same,Necrosis,[32],3.23%
same,GI %,[21],77%
same,GI %,[22],56%
same,%G0-G1,[33],89.04%
same,%G2-M,[33],1.40%
same,IC50,[23],96.1 nM
same,GI %,[24],38%
same,GI %,[25],40%
same,GI %,[26],60%
same,GI %,[27],48%
same,GI %,[29],25%
same,GI %,[31],50%

# From article PMC11702208 (RSC Advances, 2025)
